{
  "source": "paper PMC11794677",
  "about": "“Self‐Assembly of a Conjugate of Lipoic Acid With a Collagen‐Stimulating Pentapeptide Showing Cytocompatibility and Wound Healing Properties, and Chemical and Photolytic Disassembly” (Journal of Peptide Science, 2025)",
  "key": {"[1]": {"test": "Chemical reduction with TCEP, effect on self-assembled structures", "assay_type": "physicochemical", "conditions": "3 wt% with 2.6 wt% TCEP, SAXS and SANS; cryo-TEM 1 wt% + 0.37 wt% TCEP", "description": "The ring‐opening of the lipoyl moiety can be achieved under reductive conditions. We examined the effect of chemical reduction on the self‐assembled structures of lipoyl‐KTTKS using TCEP [tris(2‐carboxyethyl)phosphine] as reductant. […] The SAXS data in Figure 3a show a considerable reduction in scattering intensity after addition of TCEP and the SANS profile in Figure 3b is barely above background after addition of TCEP. The SAXS data can be described using a form factor for monomer scattering with a power‐law intensity function at low q to account for a small fraction of irregular aggregates. The disruption of the fibrils upon TCEP addition was also confirmed by cryo‐TEM (images shown in Figure S1) because no aggregate structures were observed after addition of TCEP. Circular dichroism (CD) spectra shown in Figure 4 are characterized by a negative minimum in the CD spectrum at 196 nm along with the absence of defined features at higher wavelength, characteristic of a primarily disordered conformation. […] This is consistent with the observation that lipoyl‐KTTKS forms fibril‐like structures above a CAC detected by ThT binding to β‐sheet structure and as observed by cryo‐TEM, SAXS and SANS. […]"}, "[2]": {"test": "CAC assay with fluorescent probe thioflavin T (ThT)", "assay_type": "physicochemical", "conditions": "ThT fluorescence peak intensity (λem = 448 nm) vs concentration", "experimental": "Before considering biocompatibility and bioactivity of lipoyl‐KTTKS, we examined whether this lipopeptide has a critical aggregation concentration (CAC) above which it forms self‐assembled aggregate structures. Based on our previous work on KTTKS‐lipopeptides, β‐sheet formation of lipoyl‐KTTKS is likely to be favoured. Therefore a CAC assay using the fluorescent probe thioflavin T (ThT) which is sensitive to β‐sheet formation was performed. The ThT fluorescence peak intensity was monitored as a function of concentration, and the results are shown in Figure 1 and indicate a CAC value (0.5 ± 0.1) wt% from the intersection of the straight lines at low and high concentrations, or (0.67 ± 0.06) wt% as the midpoint of a fitted Boltzmann‐type sigmoidal function: I=A2+A1−A2/1+expc−c1/2/σ\nFIGURE 1 CAC assay plotting fluorescence intensity of ThT (λ em = 448 nm) as a function of concentration. […] The black lines provide a linear intercept estimate of CAC.\nHere, I is the fluorescence intensity (at λ em = 448 nm), A 1 and A 2 are constants, c is the lipopeptide concentration, c 1/2 is the mid‐point concentration, and σ is the width parameter."}, "[3]": {"tested_on": "type I/III collagen production by HDFa cells", "test": "Collagen quantification, picrosirius red (Direct red 80) staining", "assay_type": "cell-based, Human", "conditions": "72 h incubation, different concentrations, absorbance 490 nm, ANOVA, n = 3", "experimental": "To quantify collagen production, HDFa cells were seeded at a confluency of 1 × 10^4 cells/well into 96‐well plates in DMEM/F12 + 5 μg/mL of insulin and incubated for 3 days in DMEM/F12 without supplements as control, or DMEM/F12 + different concentrations of lipoyl‐KTTKS and conventional supplements (ascorbic acid 1 mM, TGFβ1 0.025 ng/mL and insulin 10 μg/mL). After incubation, the cells were washed three times with PBS and were fixed with cold ethanol 70%. The plate was transferred to a −80°C ultra‐freezer for 10 min and washed with water to remove any residual ethanol. After fixation, the collagen was incubated overnight in a solution containing Direct red 1 mg/mL in picric acid at 4°C. After this final incubation, the fixed cells were washed with distilled water to remove any residual dye, and the collagen and cells were then treated with 1‐mM NaOH for 10 min at room temperature. The resulting absorbance was measured at 490 nm using an Infinite F50 microplate reader (TECAN, Switzerland).\nBecause of the great commercial interest in KTTKS pentapeptides in cosmetic products with proposed antiaging properties resulting from cellular matrix stimulation, collagen production assays were performed using the technique of picrosirius red (commercial name, Direct red 80) staining (UV/vis absorbance) measurements."}},
  "data": [
    {"substance": "lipoyl‐KTTKS [peptide amphiphile comprising a conjugate of lipoic acid to pentapeptide KTTKS]", "values": [
      {"measurement": "Effect of addition of TCEP on self-assembled structures", "setting": "[1]", "result": "disrupts the fibril structures"},
      {"measurement": "CAC (critical aggregation concentration) from intersection of straight lines", "setting": "[2]; intersection of straight lines at low and high concentrations", "result": "0.5 ± 0.1", "unit": "wt%"},
      {"measurement": "CAC as midpoint of fitted Boltzmann-type sigmoidal function", "setting": "[2]; midpoint c1/2 of sigmoidal fit", "result": "0.67 ± 0.06", "unit": "wt%"},
      {"measurement": "Collagen production compared with the control or conventional stimulants", "setting": "[3]", "result": "no statistically significant increase"}
    ]}
  ]
}
